No end group written: not given here.
Experiments:
[1] = system: TCRM T cells; assay: Proliferation of transferred TCRM CD4^+ T cells after injection of peptide loaded dendritic cells; assay type: in vivo, mouse; settings: TCRM CD4^+ T cells transferred into BALB/c mice
Text: FIGS. 7A-I. Specificity and immune interaction of Bacteroides mimic peptide-specific CD4^+ T cells. (FIG. 7A) In vitro proliferation of CD4^+ T cells from TCRM mice or DO11.10 mice measured by CFSE dilution after re-stimulation with MYH6 or Bacteroides β-galactosidase peptide or ovalbumin peptide at indicated concentration (representative histograms from 1 out of 2 experiments) (FIG. 7B) Dendritic cells loaded with MYH6 or β-gal peptide from Bacteroides at the indicated concentration were co-cultured in vitro with CD4^+ T cells from TCRM mice. Maximum proliferation of CD4^+ T cells was analyzed by flow cytometry and effective concentration 50 (EC50) for each peptide was determined. (FIG. 7C) CD4^+ T cells from TCRM mice were adoptively transferred into BALB/c mice. Proliferation of CD4^+ T cells from TCRM mice was determined ex vivo by CFSE dilution after injection of peptide loaded dendritic cells (n=3). (FIG. 7D-FIG. 7E) Colonization of GF TCRM mice with SPF microbiota or B. thetaiotaomicron or E. coli. […] Fold increase values were calculated using the cytokine production in GF mice as baseline (mean±SEM). […] (FIG. 7H) experimental dosing, (FIG. 7I) representative dot plots left and quantification right of IgA bound bacteria; background was set using samples from Rag^−/− mice (mean±SEM). […]

[2] = system: peripheral blood mononuclear cells; assay: IFN-γ ELISPOT, human T cell stimulation; assay type: cell-based; settings: Micro-DCM patients compared to healthy controls
Experimental: IFN-γ ELISPOT was performed as described by Lv et. al. with minor modifications (7), Briefly, PBMCs from patients and healthy volunteers were isolated on density gradients. PBMCs were adjusted to 2×10^6 cells/ml in 0.5 ml of complete IVS medium supplemented with 8% of human serum. Cells were stimulated for 48 h with 0.25 μg/ml of the indicated peptide or left untreated as medium control. After incubation, cells were washed and re-suspended in 0.3 ml of RPMI/10% FOS and approximately 5×10^5 cells/0.1 ml were dispensed in duplicates into previously coated and blocked ELISPOT plates (IFN-γ base kit, MABTECH). After 24 h of incubation at 37° C. the ELISPOT plates were washed and developed as indicated by the manufacturer. Plates were counted using an ELISPOT reader and analyzed with the software ELISPOT 3.1SR (AID). Number of specific IFN-γ positive cells was calculated as the mean of the duplicates minus the mean of the medium control.

[3] = system: CD4^+ T cells from TCRM mice; assay: Ex vivo proliferation assay (CFSE dilution) after peptide re-stimulation; assay type: cell-based, mouse; settings: 3 days
Experimental: Spleen cells were labelled with 10 μl of 5 mM carboxyfluorescein succinimidyl ester (CSFE, dissolved in DMSO) (Molecular Probes) in 10 ml of PBS for 10 min at 37° C. The staining reaction was stopped with 1 mL FCS (Lonza), followed by washing with PBS. A total of 2×10^5 splenocytes/well were seeded in 96-well round-bottom plate and MYH6614-629 (RSLKLMATLFSTYASADR, SEQ ID NO: 10) or Bacteroides β-galactosidase11-25 (TFLILMAALTATFASAQK, SEQ ID NO: 11), Enterobacter cysteine hydrolase10-27 (LLIGMMSTFSTYASAQET, SEQ ID NO: 12) or OVA323-339 (ISQAVHAAHAEINEAGR, SEQ ID NO: 13) peptide was added at the indicated concentrations. CSFE dilution was assessed by flow cytometry after 3 days of incubation at 37° C. All peptides were synthetized by Genscript with >80% of purity.

[4] = system: CD4^+ T cells from heart and colon of TCRM mice; assay: Ex vivo restimulation and cytokine production of murine T cells; assay type: cell-based, mouse
Experimental: For assessment of ex vivo production of IFN-γ and IL-17, 10^6 lymphocytes were incubated for 3.5 h at 37° C. in 96-well round-bottom plates in 200 μL of RPMI per 5% FCS supplemented with 10 μg/mL brefeldin A (Sigma). Cells were stimulated with 0.25 μg of the different peptides (see below), or phorbol myristate acetate (50 ng/ml; Sigma)/ionomycin (500 ng/ml; Sigma) (PMA/l) as positive control, or were left untreated. After surface molecule labelling, cells were stained with the fixable viability dye Zombie Aqua (Biolegend). Cells were fixed with cytofix-cytoperm (BD Biosciences) for 20 min. Fixed cells were incubated at 4° C. for 40 min with permeabilization buffer (2% FCS, 0.5% saponin in PBS) containing antibodies to CD3, CD4, IFN-γ and IL-17A. Samples were measured using a BD LSR Fortessa (BD Biosciences). Data were analyzed using FlowJo software (Tree Star, Inc.).

[5] = system: B. thetaiotaomicron; assay: Quantitative B. thetaiotaomicron PCR in feces; assay type: in vivo, Bacteroides thetaiotaomicron; settings: Rag1^−/− recipients, qPCR
Experimental: Bacterial genomic DNA was extracted using a commercial kit (QIAamp DNA Stool Mini Kit) with minor modifications. Glass beads (Sigma, G4649-10G) were used for an optimal disruption of fecal content and an additional extraction step was introduced after incubation of bacteria with a lysis buffer (20 mg/ml lysozyme—Sigma 62970-5G-F, 2 mM EDTA, 1.2% Triton, 20 mM Tris-HCl). Extracted genomic DNA was used as a template for B. thetaiotaomicron PCR amplification and quantification using a real-time PCR machine (Quant Studio 5) and SYBR Green PCR technology (Applied Biosystems, Thermo Fisher Scientific). B. thetaiotaomicron was quantified using species specific primers that have been established and validated before (39) ([…] and […]) with a cycling protocol of denaturation at 95° C. (2 min), 40 cycles of 95° C. (20 sec), 58° C. (20 sec) and 72° C. (30 sec). Each 17 μl qPCR mixture consisted of 8.5 μl of 2×SYBR Green MasterMix (Applied Biosystems, Thermo Fisher Scientific), 1.7 μl of BSA (100 μg/ml), 0.6 μl of each primer (10 μM), 3.60 μl PCR-grade water and 2 μl of extracted genomic DNA. DNA extracted from B. theta ATCC29148 was used to construct a standard curve with 10-fold dilutions of DNA templates of known concentrations. Concentrations of DNA used in the standard curves ranged from 33.75 ng/μl equivalent to 10^7 bacteria to 0.035 pg/μl equivalent to 10^1 bacteria. […]

[6] = system: Rag1^−/− mice; assay: Adoptive transfer myocarditis model with antibiotics treatment; assay type: in vivo, mouse; settings: for accumulation of TCR-transgenic CD4^+ T cells in hearts / cardiac inflammation by flow cytometry (heart-infiltrating CD45^+ cells): day 28
Experimental: For the generation of single-cell suspensions, spleens and lymph nodes were collected in BSS and were mechanically disrupted on a metallic grid. To confirm the presence of heart-infiltrating cells, mice received 2 μg of anti-CD45.2 BV510 or anti-Thy 1.1 PE i.v. 5 min before being euthanized in the indicated experiments. Euthanized animals were perfused with 20 ml PBS and small heart tissue pieces were placed into a 6-well dish filled with RPMI 1640 medium containing 2% FCS, 20 mM HEPES (Lonza), 1 mg/ml collagenase 0 (Sigma) and 25 μg/ml DNasel (Applichem) and incubated at 37° C. under continuous stirring. The remaining tissue pieces were mechanically disrupted and mononuclear cells were purified by centrifugation (25 min at 800×g, 4° C.) on a 30-70% Percoll gradient (GE Healthcare). For isolation of colonic lamina propria cells, colons were flushed and tissue was harvested and incubated three times for 15 min at room temperature under constant agitation with BSS containing 5% FCS (Lonza), 5 mM EDTA (Sigma), 10 mM HEPES (Sigma) and 1 mM OTT in order to dissociate the epithelial layer. The tissue was subsequently washed with SS containing 10 mM HEPES and digested three times for 20 min at 37° C. with 120 μg/ml collagenase P (Roche), 25 μg/ml DNAse I (Applichem) and 5 μg/ml Dispase I (Roche) in RPMI-1640; after obtaining a single cell suspension, cells were purified by a 30-70% Percoll gradient. Single-cell suspensions were first stained with the fixable viability dye Zombie Aqua (Biolegend) and incubated for 30 min on ice; after washing, cells were incubated for 20 min at 4° C. in PBS containing 2% FCS and 10 mM EDTA with fluorochrome-labeled antibodies (Table 5). Cells were acquired with a BD LSRFortessa (BD Biosciences) and analyzed using FlowJo software (Treestar Inc) following stablished guidelines (32). […] Cells were stimulated with 0.25 μg of the different peptides (see below), or phorbol myristate acetate (50 ng/ml; Sigma)/ionomycin (500 ng/ml; Sigma) (PMA/l) as positive control, or were left untreated. After surface molecule labelling, cells were stained with the fixable viability dye Zombie Aqua (Biolegend). Cells were fixed with cytofix-cytoperm (BD Biosciences) for 20 min. […] Samples were measured using a BD LSR Fortessa (BD Biosciences). Data were analyzed using FlowJo software (Tree Star, Inc.). […] Red blood cells were lysed by osmotic shock and 10^6 splenocytes were injected intravenously in 4 wk mice in the lateral tail vein of Rag1^−/− mice. Seven days after adoptive transfer, mice were bled to confirm CD4^+ T cell expansion. Disease activity scores and analysis of T cell activation in the heart and colonic lamina propria were performed at day 28 post adoptive transfer.

Compound	IFN-γ reactivity of PBMC [2]	in vitro proliferation of CD4^+ T cells from TCRM mice [3]	accumulation of TCR-transgenic CD4^+ T cells in hearts [6]	cardiac inflammation by flow cytometry (heart-infiltrating CD45^+ cells) [6]	further results
TFLILMAALTATFASAQK [B. theta β-gal peptide, TFLILMAALTATFASAQK]	significantly higher IFN-γ reactivity	induced in vitro proliferation	–	–	activation of TCRM T cells in vivo by peptide-pulsed dendritic cells [1]: efficient activation of TCRM T cells in vivo; ex vivo re-stimulation of transgenic CD4^+ T cells (cytokine production) ([4]; heart and colon of 12 week old TCRM mice): ex vivo re-stimulation of transgenic CD4^+ T cells from heart and colon
RSLKLMATLFSTYASADR (MYH6 614-629) [MYH6 peptide, MYH6614-629 peptide synthetized by Genscript]	–	–	–	–	IFN-γ or IL-17 secretion upon ex-vivo re-stimulation ([4]; CD4^+ T cells from colonic lamina propria, TCRM vs DO11.10): only MYH6-specific CD4^+ T cells, but not ovalbumin-specific CD4^+ T cells from the colonic lamina propria were able to secrete IFN-γ or IL-17
SLKLMATLFSSYATAD (listed as Homo sapiens) [SEQ ID NO: 17, human myosin heavy chain 6 peptide]	significantly higher IFN-γ reactivity	–	–	–	–
CN[C@H](CC(C)C)C(=O)N[C@H]1C(=O)N[C@@H](CC(N)=O)C(=O)N[C@H]2C(=O)N[C@H]3C(=O)N[C@H](C(=O)N[C@H](C(=O)O)c4cc(O)cc(O)c4-c4cc3ccc4O)[C@H](O)c3ccc(c(Cl)c3)Oc3cc2cc(c3O[C@@H]2O[C@H](CO)[C@@H](O)[C@H](O)[C@H]2O[C@H]2C[C@](C)(N)[C@H](O)[C@H](C)O2)Oc2ccc(cc2Cl)[C@H]1O [Vancomycin]	–	–	significantly reduced accumulation	profound reduction	B. theta levels in fecal samples [5]: reduced; activity of Th1 cells ([6]; IFN-γ production): reduced to a lesser extent; activation of heart-infiltrating and colonic Th17 cells ([6]; IL-17 production): pronounced impact; cardiac disease (histopathology) ([6]; day 28 post adoptive transfer): significantly ameliorated
LLIGMMSTFSTYASAQET (Enterobacter cysteine hydrolase 10-27) [Enterobacter cloacae peptide, Enterobacter cysteine hydrolase10-27 peptide synthetized by Genscript]	–	not	–	–	–
[H]/N=C(/N)N[C@H]1[C@H](O)[C@@H](O)[C@H](O[C@@H]2O[C@@H](C)[C@](O)(C=O)[C@H]2O[C@@H]2O[C@@H](CO)[C@H](O)[C@@H](O)[C@@H]2NC)[C@@H](N/C(N)=N\[H])[C@@H]1O [Streptomycin]	–	–	significantly reduced accumulation	profound reduction	–

Source: US11617773B2, “Elimination of colonic bacterial driving lethal inflammatory cardiomyopathy” (Eligo Bioscience, priority 2020, dated 2023)
